# Results reported in ChEMBL document CHEMBL6074623, “Carbamoylation at C-8 position of natural 3-arylcoumarin scaffold for the discovery of novel PARP-1 inhibitors with potent anticancer activity” (Eur J Med Chem, 2024).
# pIC50: −log10 of the molar value.
# Assays:
# [1] = target: Poly [ADP-ribose] polymerase 1 (Homo sapiens, UniProt P09874); experiment: Inhibition of PARP-1 in human SUM149PT cells incubated for 48 hrs by HRP-ELISA; format: cell-based
# SUM149PT [2] = experiment: Induction of apoptosis in human SUM149PT cells assessed as necrotic cells at 0.1 uM incubated for 24 hrs by Annexin V-FITC/PI staining based flow cytometry (reference value: 1.27 %); format: functional
# SUM149PT [3] = experiment: Antiproliferative activity against human SUM149PT cells assessed as inhibition of cell growth at 5 uM incubated for 48 hrs by MTT assay relative to control; format: functional
# SUM149PT [4] = experiment: Induction of apoptosis in human SUM149PT cells assessed as upregulation of cleaved PARP expression incubated for 48 hrs by Western blotting analysis; format: functional, cell-based
# SUM149PT [5] = experiment: Induction of cell cycle arrest in human SUM149PT cells assessed as accumulation of cells at G2/M phase at 0.1 uM incubated for 48 hrs by propidium iodide/RNase A staining based flow cytometry (reference value: […] %); format: functional
# SUM149PT [6] = experiment: Induction of apoptosis in human SUM149PT cells assessed as early apoptotic cells at 0.5 uM incubated for 24 hrs by Annexin V-FITC/PI staining based flow cytometry (reference value: 2.59 %); format: functional
# SUM149PT [7] = experiment: Induction of apoptosis in human SUM149PT cells assessed as late apoptotic cells at 2 uM incubated for 48 hrs by Annexin V-FITC/PI staining based flow cytometry (reference value: 1.13 %); format: functional
# SUM149PT [8] = experiment: Induction of cell cycle arrest in human SUM149PT cells assessed as accumulation of cells at S phase at 2 uM incubated for 48 hrs by propidium iodide/RNase A staining based flow cytometry (reference value: 18.7 %); format: functional
# SUM149PT [9] = experiment: Induction of apoptosis in human SUM149PT cells assessed as early apoptotic cells at 0.1 uM incubated for 48 hrs by Annexin V-FITC/PI staining based flow cytometry (reference value: 2.28 %); format: functional
# SUM149PT [10] = experiment: Induction of apoptosis in human SUM149PT cells assessed as viable cells at 2 uM incubated for 24 hrs by Annexin V-FITC/PI staining based flow cytometry (reference value: 93.7 %); format: functional; conditions: read-out: Activity
# SUM149PT [11] = experiment: Induction of cell cycle arrest in human SUM149PT cells assessed as accumulation of cells at G2/M phase at 0.5 uM incubated for 48 hrs by propidium iodide/RNase A staining based flow cytometry (reference value: […] %); format: functional
# SUM149PT [12] = experiment: Induction of cell cycle arrest in human SUM149PT cells assessed as accumulation of cells at S phase at 2 uM incubated for 24 hrs by propidium iodide/RNase A staining based flow cytometry (reference value: 16.4 %); format: functional
# SUM149PT [13] = experiment: Antiproliferative activity against human SUM149PT cells assessed as inhibition of cell growth incubated for 48 hrs by MTT assay; format: functional, cell-based
# SUM149PT [14] = experiment: Induction of cell cycle arrest in human SUM149PT cells assessed as accumulation of cells at G0/G1 phase at 0.1 uM incubated for 24 hrs by propidium iodide/RNase A staining based flow cytometry (reference value: 72.8 %); format: functional
# SUM149PT [15] = experiment: Induction of cell cycle arrest in human SUM149PT cells assessed as accumulation of cells at S phase at 0.5 uM incubated for 48 hrs by propidium iodide/RNase A staining based flow cytometry (reference value: 18.7 %); format: functional
# SUM149PT [16] = experiment: Induction of apoptosis in human SUM149PT cells assessed as early apoptotic cells at 2 uM incubated for 24 hrs by Annexin V-FITC/PI staining based flow cytometry (reference value: 2.59 %); format: functional
# CAPAN-1 [17] = experiment: Antiproliferative activity against human CAPAN-1 cells assessed as inhibition of cell growth at 5 uM incubated for 48 hrs by MTT assay relative to control; format: functional
# SUM149PT [18] = experiment: Induction of DNA double strand breaks in human SUM149PT cells assessed as increase in gamma-H2AX level in nucleus incubated for 48 hrs by immunofluorescence analysis; format: functional, cell-based
# SUM149PT [19] = experiment: Induction of apoptosis in human SUM149PT cells assessed as necrotic cells at 2 uM incubated for 48 hrs by Annexin V-FITC/PI staining based flow cytometry (reference value: 0.51 %); format: functional
# SUM149PT [20] = experiment: Induction of cell cycle arrest in human SUM149PT cells assessed as accumulation of cells at G2/M phase at 2 uM incubated for 24 hrs by propidium iodide/RNase A staining based flow cytometry (reference value: 5.54 %); format: functional
# SUM149PT [21] = experiment: Induction of apoptosis in human SUM149PT cells assessed as necrotic cells at 0.5 uM incubated for 24 hrs by Annexin V-FITC/PI staining based flow cytometry (reference value: 1.27 %); format: functional
# SUM149PT [22] = experiment: Induction of cell cycle arrest in human SUM149PT cells assessed as accumulation of cells at S phase at 0.5 uM incubated for 24 hrs by propidium iodide/RNase A staining based flow cytometry (reference value: 16.4 %); format: functional
# SUM149PT [23] = experiment: Induction of apoptosis in human SUM149PT cells assessed as necrotic cells at 0.5 uM incubated for 48 hrs by Annexin V-FITC/PI staining based flow cytometry (reference value: 0.51 %); format: functional
# CAPAN-1 [24] = experiment: Antiproliferative activity against human CAPAN-1 cells assessed as inhibition of cell growth incubated for 48 hrs by MTT assay; format: functional, cell-based; conditions: CAPAN-1, 48 h
# SUM149PT [25] = experiment: Induction of cell cycle arrest in human SUM149PT cells assessed as accumulation of cells at G0/G1 phase at 0.5 uM incubated for 48 hrs by propidium iodide/RNase A staining based flow cytometry (reference value: 69.2 %); format: functional
# SUM149PT [26] = experiment: Induction of apoptosis in human SUM149PT cells assessed as necrotic cells at 2 uM incubated for 24 hrs by Annexin V-FITC/PI staining based flow cytometry (reference value: 1.27 %); format: functional
# SUM149PT [27] = experiment: Induction of apoptosis in human SUM149PT cells assessed as upregulation of cleaved caspase-3 expression incubated for 48 hrs by Western blotting analysis; format: functional, cell-based
# Mitochondrial membrane = experiment: Induction of mitochondrial membrane potential loss in human SUM149PT cells incubated for 48 hrs by JC-1 staining based confocal laser scanning microscopic analysis
# CAPAN-1 [28] = experiment: Antiproliferative activity against human CAPAN-1 cells assessed as inhibition of cell growth at 20 uM incubated for 48 hrs by MTT assay relative to control; format: functional
# SUM149PT [29] = experiment: Induction of apoptosis in human SUM149PT cells assessed as necrotic cells at 0.1 uM incubated for 48 hrs by Annexin V-FITC/PI staining based flow cytometry (reference value: 0.51 %); format: functional
# Sequence of Poly [ADP-ribose] polymerase 1 (P09874 whole entry): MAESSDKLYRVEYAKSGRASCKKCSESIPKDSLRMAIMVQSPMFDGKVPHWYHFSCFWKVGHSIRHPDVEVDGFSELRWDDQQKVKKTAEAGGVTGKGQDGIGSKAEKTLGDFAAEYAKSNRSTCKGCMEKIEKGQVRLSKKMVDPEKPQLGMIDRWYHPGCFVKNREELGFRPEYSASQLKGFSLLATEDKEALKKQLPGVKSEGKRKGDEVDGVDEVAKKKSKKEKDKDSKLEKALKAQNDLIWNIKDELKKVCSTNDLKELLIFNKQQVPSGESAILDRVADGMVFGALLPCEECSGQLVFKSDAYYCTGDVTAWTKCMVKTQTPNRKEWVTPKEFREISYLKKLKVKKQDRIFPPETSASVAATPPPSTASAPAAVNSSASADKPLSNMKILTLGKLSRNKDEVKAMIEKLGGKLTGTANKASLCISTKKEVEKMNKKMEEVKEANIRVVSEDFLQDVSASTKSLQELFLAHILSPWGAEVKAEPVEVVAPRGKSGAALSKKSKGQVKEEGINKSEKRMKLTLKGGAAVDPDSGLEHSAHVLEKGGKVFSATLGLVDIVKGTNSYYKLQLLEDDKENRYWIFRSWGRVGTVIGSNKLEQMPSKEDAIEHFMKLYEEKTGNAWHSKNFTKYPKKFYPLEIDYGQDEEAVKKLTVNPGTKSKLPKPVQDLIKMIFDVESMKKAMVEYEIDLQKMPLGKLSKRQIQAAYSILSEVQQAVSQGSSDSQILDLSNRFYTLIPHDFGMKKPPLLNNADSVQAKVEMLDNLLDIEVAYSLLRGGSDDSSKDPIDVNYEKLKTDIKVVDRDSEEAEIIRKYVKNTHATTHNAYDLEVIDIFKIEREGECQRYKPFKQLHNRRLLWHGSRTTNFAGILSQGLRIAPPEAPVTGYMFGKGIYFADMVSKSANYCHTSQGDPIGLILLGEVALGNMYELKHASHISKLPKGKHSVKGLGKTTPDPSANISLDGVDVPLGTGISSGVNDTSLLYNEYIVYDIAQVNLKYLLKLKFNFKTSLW
smiles,measurement,setting,value
COc1cccc(-c2cc3cc(F)cc(C(N)=O)c3oc2=O)c1,pIC50,[1],8.60
same,Activity,SUM149PT [2],1.86%
same,inhibition at 5 µM,SUM149PT [3],> 70%
same,Activity,SUM149PT [4],Dose-dependent-effect
same,Activity,SUM149PT [5],29.1%
same,Activity,SUM149PT [6],5.61%
same,Activity,SUM149PT [7],6.85%
same,Activity,SUM149PT [8],18.5%
same,Activity,SUM149PT [9],5.45%
same,viability at 2 µM,SUM149PT [10],76.7%
same,Activity,SUM149PT [11],36.7%
same,Activity,SUM149PT [12],22.3%
same,pIC50,SUM149PT [13],6.21
same,Activity,SUM149PT [14],59.5%
same,Activity,SUM149PT [15],25.3%
same,Activity,SUM149PT [16],9.8%
same,inhibition at 5 µM,CAPAN-1 [17],> 50%
same,Activity,SUM149PT [18],Dose-dependent-effect
same,Activity,SUM149PT [19],2.61%
same,Activity,SUM149PT [20],36.8%
same,Activity,SUM149PT [21],2.31%
same,Activity,SUM149PT [22],17.4%
same,Activity,SUM149PT [23],11.9%
same,pIC50,CAPAN-1 [24],5.37
same,Activity,SUM149PT [25],38.3%
same,Activity,SUM149PT [26],6.61%
same,Activity,SUM149PT [27],Dose-dependent-effect
same,Activity,Mitochondrial membrane,Dose-dependent-effect
same,inhibition at 20 µM,CAPAN-1 [28],> 60%
same,Activity,SUM149PT [29],1.22%
